Values belong to the compound of their own block, whether it stands above or below them.
Assays:
[1] = Compound stability in human liver microsomes; assay type: in vitro ADME; conditions: for half-life at 5 μM: human liver microsomes 0.5 mg protein/mL, compound 5 μM, NADPH 1.0 mM, pH 7.4, 37° C., read-out: Human T1/2; for CLint scaled at 5 μM: liver microsomes, pH 7.4, in vivo CLint extrapolated from human liver microsome incubation
Protocol: (§1) Human or rat liver microsomes incubations were conducted in duplicate in polypropylene tubes. The typical incubation mixtures consisted of human or rat liver microsomes (0.5 mg protein/mL), compounds of interest (5 μM) and NADPH (1.0 mM) in a total volume of 200 μL potassium phosphate buffer (PBS, 100 mM, pH 7.4). Compounds were dissolved in DMSO and diluted with PBS such that the final concentration of DMSO was 0.05%. The enzymatic reactions were commenced with the addition of protein after a 3-min preincubation and incubated in a water bath open to the air at 37° C. Reactions were terminated at various time points (0, 5, 10, 15, 30, 60 min) by adding equal volume of ice-cold acetonitrile. The samples were stored at −80° C. until LC/MS/MS assays.
(§2) The concentrations of compounds in the incubation mixtures of human or rat liver microsomes were determined by a LC/MS/MS method. The ranges of the linearity in the concentration range were determined for each tested compounds.
(§3) A parallel incubation was performed using denatured microsomes as the negative control, and reactions were terminated at various time points (0, 15, 60 min) after incubation at 37° C.
(§4) Dextromethorphan (70 μM) was selected as the positive control, and reactions were terminated at various time points (0, 5, 10, 15, 30, 60 min) after incubation at 37° C. Both positive and negative control samples were included in each assay to ensure the integrity of the microsomal incubation system.
(§5) The concentrations of compounds in human or rat liver microsome incubations were plotted as a percentage of the relevant zero time point control for each reaction. The in vivo CLint were extrapolated (ref.: Naritomi, Y.; Terashita, S.; Kimura, S.; Suzuki, A.; Kagayama, A.; and Sugiyama, Y.; Prediction of human hepatic clearance from in vivo animal experiments and in vitro metabolic studies with liver microsomes from animals and humans. Drug Metab. Dispos., 2001, 29: 1316-1324).

[2] = Pharmacokinetics after intravenous and oral administration in rats; assay type: in vivo; conditions: for CL/F / bioavailability: Rats; for CL/F: iv dosing, dose 1 mg/kg (0.5 for Ex. 1, 10, 11, 35; 0.48 for Ex. 24); for AUC(0-t) / half-life / Vd / bioavailability: rat, plasma; for AUC(0-t) / half-life / Vd: iv, 1 mg/kg; for Vd: read-out: Vss; for bioavailability: oral (p.o.) generally 5 or 10 mg/kg versus iv dosing
Protocol: The LC/MS/MS system used in the analysis consists of an Agilent 1200 Series vacuum degasser, binary pump, well-plate autosampler, thermostatted column compartment, the Agilent G6430 Triple Quadrupole Mass Spectrometer with an electrosprayionization (ESI) source. Quantitative analysis was carried out using MRM mode. The parameters for MRM transitions are in the Table A.
An Agilent XDB-C18, 2.1×30 mm, 3.5 M column was used for the analysis. 5 L of the samples were injected. Analysis condition: The mobile phase was 0.1% formic acid in water (A) and 0.1% formic acid in methanol (B). The flow rate was 0.4 mL/min. And the gradient of Mobile phase was in the Table B.
Alternatively, an Agilent 6330 series LC/MS/MS spectrometer equipped with G1312A binary pumps, a G1367A autosampler and a G1314C UV detector were used in the analysis. An ESI source was used on the LC/MS/MS spectrometer. The analysis was done in positive ion mode as appropriate and the MRM transition for each analyte was optimized using standard solution. A Capcell MP-C18 100×4.6 mm I.D., […] column (Phenomenex, Torrance, Calif., USA) was used during the analysis. The mobile phase was 5 mM ammonia acetate, 0.1% MeOH in water (A): 5 mM ammonia acetate, 0.1% MeOH in acetonitrile (B) (70:30, v/v). The flow rate was 0.6 mL/min. Column was maintained at ambient temperature. 20 μL of the samples were injected.
The compounds disclosed herein are assessed in pharmacokinetic studies in mice, rats, dogs or monkeys. The compounds are administered as a water solution, 2% HPMC+1% TWEEN®80 in water solution, 5% DMSO+5% solutol in saline, 4% MC suspension or capsule. For the intravenous administration, the animals are generally given at 1 or 2 mg/kg dose. For the oral (p.o.) dosing, mice and rats are generally given 5 or 10 mg/kg dose, and dogs and monkeys are generally given 10 mg/kg dose. The blood samples (0.3 mL) are drawn at 0.25, 0.5, 1.0, 2.0, 3.0, 4.0, 6.0, 8.0, 12 and 24 h time points or 0.083, 0.25, 0.5, 1.0, 2.0, 4.0, 6.0, 8.0 and 24 h time points and centrifuged at 3,000 or 4000 rpm for 2 to 10 min. The plasma solutions are collected, stored at −20° C. or −70° C. until analyzed by LC/MS/MS as described above.

[3] = Compound stability in rat liver microsomes; assay type: in vitro ADME; conditions: for CLint scaled at 5 μM: liver microsomes, pH 7.4, in vivo CLint extrapolated from rat liver microsome incubation; for half-life at 5 μM: rat liver microsomes 0.5 mg protein/mL, compound 5 μM, NADPH 1.0 mM, pH 7.4, 37° C., read-out: Rat T1/2
Protocol: as §1, §2, §3, §4, §5

[4] = target: T1, PI3K (p110δ/p85α) (h) (Homo sapiens, UniProt O00329); assay: PI3K (p110δ/p85α) (h) non-radioactive HTRF kinase assay; assay type: biochemical; conditions: Kinase inhibition data; performed at Millipore UK Ltd
T1 construct: purchased Millipore UK Ltd
T1 sequence (O00329 whole entry): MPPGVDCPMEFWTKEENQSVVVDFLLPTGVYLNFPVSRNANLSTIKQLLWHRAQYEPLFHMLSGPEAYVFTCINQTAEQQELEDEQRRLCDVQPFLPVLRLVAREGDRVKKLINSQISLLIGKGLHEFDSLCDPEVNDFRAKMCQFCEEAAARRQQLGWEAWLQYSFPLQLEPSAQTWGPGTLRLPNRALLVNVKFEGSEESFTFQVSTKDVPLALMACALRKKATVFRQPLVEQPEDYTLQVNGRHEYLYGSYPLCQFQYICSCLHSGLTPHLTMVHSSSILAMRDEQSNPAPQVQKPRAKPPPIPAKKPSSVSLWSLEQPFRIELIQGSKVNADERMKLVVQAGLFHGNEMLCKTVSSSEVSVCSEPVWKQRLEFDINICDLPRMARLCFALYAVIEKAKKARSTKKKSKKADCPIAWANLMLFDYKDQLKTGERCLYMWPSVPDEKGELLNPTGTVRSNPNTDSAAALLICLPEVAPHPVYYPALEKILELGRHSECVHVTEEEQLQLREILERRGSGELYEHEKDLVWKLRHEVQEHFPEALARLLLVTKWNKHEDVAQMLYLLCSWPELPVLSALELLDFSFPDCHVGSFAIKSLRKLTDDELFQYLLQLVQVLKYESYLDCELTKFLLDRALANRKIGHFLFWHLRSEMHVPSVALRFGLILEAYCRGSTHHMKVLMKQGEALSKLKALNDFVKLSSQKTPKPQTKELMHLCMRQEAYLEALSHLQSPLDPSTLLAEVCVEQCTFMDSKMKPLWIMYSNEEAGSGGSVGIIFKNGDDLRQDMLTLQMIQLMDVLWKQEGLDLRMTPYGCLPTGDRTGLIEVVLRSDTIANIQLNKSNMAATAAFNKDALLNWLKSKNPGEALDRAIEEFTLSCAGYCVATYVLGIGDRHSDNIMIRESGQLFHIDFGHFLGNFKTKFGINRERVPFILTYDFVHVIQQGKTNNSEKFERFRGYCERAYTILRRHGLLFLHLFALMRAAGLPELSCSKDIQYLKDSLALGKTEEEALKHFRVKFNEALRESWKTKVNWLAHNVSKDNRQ
T1 sequence (P27986 whole entry partner): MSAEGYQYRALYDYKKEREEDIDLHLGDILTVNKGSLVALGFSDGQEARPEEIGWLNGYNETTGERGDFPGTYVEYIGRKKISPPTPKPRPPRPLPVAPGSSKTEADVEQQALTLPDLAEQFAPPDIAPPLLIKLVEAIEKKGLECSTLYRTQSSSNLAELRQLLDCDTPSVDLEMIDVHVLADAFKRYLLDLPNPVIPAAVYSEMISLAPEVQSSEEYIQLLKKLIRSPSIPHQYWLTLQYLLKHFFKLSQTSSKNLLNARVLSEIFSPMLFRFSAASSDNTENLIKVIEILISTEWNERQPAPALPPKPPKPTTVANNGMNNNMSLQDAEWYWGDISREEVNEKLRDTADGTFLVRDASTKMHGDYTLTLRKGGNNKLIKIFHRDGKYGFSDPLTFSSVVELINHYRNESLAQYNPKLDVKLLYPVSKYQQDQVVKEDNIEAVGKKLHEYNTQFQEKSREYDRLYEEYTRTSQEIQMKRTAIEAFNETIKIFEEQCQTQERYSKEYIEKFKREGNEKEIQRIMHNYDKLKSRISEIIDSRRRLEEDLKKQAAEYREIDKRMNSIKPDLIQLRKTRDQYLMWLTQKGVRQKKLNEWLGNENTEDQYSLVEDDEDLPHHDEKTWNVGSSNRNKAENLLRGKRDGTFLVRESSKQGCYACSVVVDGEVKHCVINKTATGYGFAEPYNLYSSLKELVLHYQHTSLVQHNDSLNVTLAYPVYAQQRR
Protocol: (§6) The above assay procedure can be used to determine the IC50 for inhibition and/or the inhibition constant, Ki.
PI3K (p110δ/p85α) (h) [Non-Radioactive Assay]
(§7) PI3K (p110δ/p85α) (h) is incubated in assay buffer containing 10 μM phosphatidylinositol-4, 5-bisphosphate and MgATP (concentration as required). The reaction is initiated by the addition of the MgATP mix. After incubation for 30 minutes at room temperature, the reaction is stopped by the addition of stop solution containing EDTA and biotinylated phosphatidylinositol-3,4,5-trisphosphate. Finally, detection buffer is added, which contains europium-labelled anti-GST monoclonal antibody, GST-tagged GRP1 PH domain and streptavidin-allophycocyanin. The plate is then read in timeresolved fluorescence mode and the homogenous time-resolved fluorescence (HTRF) signal is determined according to the formula HTRF=10000×(Em665 nm/Em620 nm).
(§8) The kinase assays described herein were performed at Millipore UK Ltd, Dundee Technology Park, Dundee DD2 1SW, UK.

[5] = target: T2, PI3K (p120γ) (h) (Homo sapiens, UniProt P48736); assay: PI3K (p120γ) (h) non-radioactive HTRF kinase assay; assay type: biochemical; conditions: Kinase inhibition data; performed at Millipore UK Ltd
T2 construct: purchased Millipore UK Ltd
T2 sequence (P48736 whole entry): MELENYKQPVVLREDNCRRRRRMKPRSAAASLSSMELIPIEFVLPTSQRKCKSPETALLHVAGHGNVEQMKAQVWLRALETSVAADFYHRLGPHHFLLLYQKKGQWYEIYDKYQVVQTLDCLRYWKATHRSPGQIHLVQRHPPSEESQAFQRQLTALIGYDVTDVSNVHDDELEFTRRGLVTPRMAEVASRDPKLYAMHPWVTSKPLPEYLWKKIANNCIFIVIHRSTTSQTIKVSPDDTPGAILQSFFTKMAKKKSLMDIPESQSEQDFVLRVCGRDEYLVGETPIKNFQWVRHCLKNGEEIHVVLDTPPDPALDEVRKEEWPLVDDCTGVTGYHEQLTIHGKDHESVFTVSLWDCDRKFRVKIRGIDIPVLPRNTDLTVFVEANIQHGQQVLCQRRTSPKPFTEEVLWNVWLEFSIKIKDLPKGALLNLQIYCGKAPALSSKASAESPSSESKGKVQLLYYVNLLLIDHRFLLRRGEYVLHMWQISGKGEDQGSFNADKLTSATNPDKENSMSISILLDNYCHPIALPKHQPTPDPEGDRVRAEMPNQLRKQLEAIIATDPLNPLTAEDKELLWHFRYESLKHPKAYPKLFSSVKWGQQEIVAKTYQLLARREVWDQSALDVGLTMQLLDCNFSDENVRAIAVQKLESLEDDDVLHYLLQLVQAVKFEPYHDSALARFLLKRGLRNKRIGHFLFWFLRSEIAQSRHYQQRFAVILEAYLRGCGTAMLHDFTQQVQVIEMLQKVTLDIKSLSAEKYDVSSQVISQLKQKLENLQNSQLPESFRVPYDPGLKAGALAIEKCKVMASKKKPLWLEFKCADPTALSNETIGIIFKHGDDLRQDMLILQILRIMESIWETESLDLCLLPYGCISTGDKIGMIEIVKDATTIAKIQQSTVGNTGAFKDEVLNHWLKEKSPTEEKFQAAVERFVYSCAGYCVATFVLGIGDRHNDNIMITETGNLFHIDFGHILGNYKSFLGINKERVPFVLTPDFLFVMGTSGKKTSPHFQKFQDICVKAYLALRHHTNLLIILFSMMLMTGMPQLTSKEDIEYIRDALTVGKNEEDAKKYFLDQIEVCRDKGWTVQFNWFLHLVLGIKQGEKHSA
Protocol: as §6
PI3K (p120γ) (h) [Non-Radioactive Assay]
as §7, with “(p120γ)” for “(p110δ/p85α)”, “M” for “μM”
as §8

[6] = target: T3, PI3K (p110α/p85α) (h) (Homo sapiens, UniProt P42336); assay: PI3K (p110α/p85α) (h) non-radioactive HTRF kinase assay; assay type: biochemical; conditions: Kinase inhibition data; performed at Millipore UK Ltd
T3 construct: purchased Millipore UK Ltd
T3 sequence (P42336 whole entry): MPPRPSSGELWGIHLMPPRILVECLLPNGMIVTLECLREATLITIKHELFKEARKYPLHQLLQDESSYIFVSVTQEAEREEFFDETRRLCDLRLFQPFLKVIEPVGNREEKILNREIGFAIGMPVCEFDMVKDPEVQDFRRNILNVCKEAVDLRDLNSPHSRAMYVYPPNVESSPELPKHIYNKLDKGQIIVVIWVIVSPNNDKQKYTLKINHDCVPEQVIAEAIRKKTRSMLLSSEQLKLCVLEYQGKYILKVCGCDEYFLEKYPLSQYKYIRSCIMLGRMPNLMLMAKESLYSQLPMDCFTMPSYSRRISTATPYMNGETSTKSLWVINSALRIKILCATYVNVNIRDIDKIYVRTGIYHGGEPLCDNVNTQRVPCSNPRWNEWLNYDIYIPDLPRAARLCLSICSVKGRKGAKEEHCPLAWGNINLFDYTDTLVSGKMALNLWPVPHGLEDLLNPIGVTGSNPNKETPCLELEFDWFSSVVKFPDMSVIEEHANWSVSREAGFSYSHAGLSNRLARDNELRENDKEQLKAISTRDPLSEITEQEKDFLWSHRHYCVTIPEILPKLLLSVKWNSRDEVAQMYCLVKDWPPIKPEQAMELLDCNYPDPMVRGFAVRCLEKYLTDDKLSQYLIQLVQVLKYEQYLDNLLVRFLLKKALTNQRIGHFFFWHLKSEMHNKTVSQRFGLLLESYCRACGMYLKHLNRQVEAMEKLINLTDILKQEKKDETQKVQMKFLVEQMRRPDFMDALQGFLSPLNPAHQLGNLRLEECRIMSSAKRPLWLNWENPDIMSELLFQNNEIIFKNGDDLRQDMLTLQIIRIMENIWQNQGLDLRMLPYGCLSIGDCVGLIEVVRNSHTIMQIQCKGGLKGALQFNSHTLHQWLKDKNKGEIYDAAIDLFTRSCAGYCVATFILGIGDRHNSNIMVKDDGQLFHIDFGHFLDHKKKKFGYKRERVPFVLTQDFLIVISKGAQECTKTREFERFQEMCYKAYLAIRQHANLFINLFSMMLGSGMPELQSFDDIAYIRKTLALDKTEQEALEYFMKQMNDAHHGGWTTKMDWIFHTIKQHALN
T3 sequence (P27986 whole entry partner): as the sequence (P27986 whole entry partner) above
Protocol: as §6
PI3K (p110α/p85α) (h) [Non-Radioactive Assay]
as §7, with “(p110α/p85α)” for “(p110δ/p85α)”, “phosphatidylinositol 4,5-bisphosphate” for “phosphatidylinositol-4, 5-bisphosphate”, “ATP solution.” for “MgATP mix.”, “streptavidin allophycocyanin.” for “streptavidin-allophycocyanin.”
as §8

[7] = target: T4, PI3K (h) p110β/p85α (Homo sapiens, UniProt P42338); assay: PI3K (p110β/p85α) (h) non-radioactive HTRF kinase assay; assay type: biochemical; conditions: Kinase inhibition data; performed at Millipore UK Ltd
T4 construct: purchased Millipore UK Ltd
T4 sequence (P42338 whole entry): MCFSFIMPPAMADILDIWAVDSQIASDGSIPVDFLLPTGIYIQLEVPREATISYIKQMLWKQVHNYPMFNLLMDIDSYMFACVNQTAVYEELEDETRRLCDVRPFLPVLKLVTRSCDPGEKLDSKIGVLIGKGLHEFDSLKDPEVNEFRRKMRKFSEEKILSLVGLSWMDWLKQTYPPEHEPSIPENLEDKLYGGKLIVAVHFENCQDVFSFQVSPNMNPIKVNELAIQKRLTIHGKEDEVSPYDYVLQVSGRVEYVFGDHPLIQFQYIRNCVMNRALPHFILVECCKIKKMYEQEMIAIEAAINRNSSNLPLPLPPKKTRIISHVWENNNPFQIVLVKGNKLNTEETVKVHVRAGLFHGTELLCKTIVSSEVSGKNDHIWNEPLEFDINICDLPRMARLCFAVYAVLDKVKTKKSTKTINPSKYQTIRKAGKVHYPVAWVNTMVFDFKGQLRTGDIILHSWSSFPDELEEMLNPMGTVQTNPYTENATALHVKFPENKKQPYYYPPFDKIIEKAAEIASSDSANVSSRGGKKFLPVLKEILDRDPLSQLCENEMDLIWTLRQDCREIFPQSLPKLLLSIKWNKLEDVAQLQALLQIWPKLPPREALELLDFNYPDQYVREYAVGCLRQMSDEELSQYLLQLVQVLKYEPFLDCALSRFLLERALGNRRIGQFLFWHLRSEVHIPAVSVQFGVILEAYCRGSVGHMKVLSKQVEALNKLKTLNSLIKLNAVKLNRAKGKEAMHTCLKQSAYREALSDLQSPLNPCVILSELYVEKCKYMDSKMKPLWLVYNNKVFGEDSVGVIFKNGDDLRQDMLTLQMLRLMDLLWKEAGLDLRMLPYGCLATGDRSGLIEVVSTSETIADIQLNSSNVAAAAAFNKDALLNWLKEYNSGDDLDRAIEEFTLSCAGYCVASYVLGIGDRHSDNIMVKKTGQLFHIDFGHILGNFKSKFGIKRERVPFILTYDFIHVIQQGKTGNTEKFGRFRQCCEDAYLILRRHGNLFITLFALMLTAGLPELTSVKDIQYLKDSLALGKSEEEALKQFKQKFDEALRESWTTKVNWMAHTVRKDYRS
T4 sequence (P27986 whole entry partner): as the sequence (P27986 whole entry partner) above

SMILES: Cc1nnc(-c2c(N)ncnc2N[C@@H](C)c2nc3cccc(-c4cnn(C)c4)c3c(=O)n2C2CC2)o1 [Ex. 67, (S)-2-(1-((6-amino-5-(5-methyl-1,3,4-oxadiazol-2-yl)pyrimidin-4-yl)amino)ethyl)-3-cyclopropyl-5-(1-methyl-1H-pyrazol-4-yl)quinazolin-4(3H)-one]
half-life at 5 μM [1]: 1.58 h
CLint scaled at 5 μM [1]: 18.3 mL/min/kg
CL/F [2]: 23.2 mL/min/kg
AUC(0-t) [2]: 777 ng·h/mL
half-life [2]: 1.14 h
Vd [2]: 1.86 L/kg
bioavailability [2]: 71.7%
CLint scaled at 5 μM [3]: 10.1 mL/min/kg
half-life at 5 μM [3]: 4.08 h
IC50 [4]: 47 nM

SMILES: Cc1nnc(-c2c(N)ncnc2N[C@@H](C)c2nc3cccc(Cl)c3c(=O)n2C2CC2)o1 [Ex. 70, (S)-2-(1-((6-amino-5-(5-methyl-1,3,4-oxadiazol-2-yl)pyrimidin-4-yl)amino)ethyl)-5-chloro-3-cyclopropylquinazolin-4(3H)-one]
half-life at 5 μM [1]: 1.1 h
CLint scaled at 5 μM [1]: 26.3 mL/min/kg
CL/F [2]: 44 mL/min/kg
AUC(0-t) [2]: 399 ng·h/mL
half-life [2]: 0.85 h
Vd [2]: 3.3 L/kg
bioavailability [2]: 96.4%
CLint scaled at 5 μM [3]: 37.8 mL/min/kg
half-life at 5 μM [3]: 1.1 h
IC50 [4]: 50 nM

SMILES: CC[C@H](Nc1ncnc(N)c1-c1nc(C)no1)c1nc2cccc(-c3cnn(C)c3)c2c(=O)n1C1CC1 [Ex. 71, (S)-2-(1-((6-amino-5-(3-methyl-1,2,4-oxadiazol-5-yl)pyrimidin-4-yl)amino)propyl)-3-cyclopropyl-5-(1-methyl-1H-pyrazol-4-yl)quinazolin-4(3H)-one]
CL/F [2]: 64 mL/min/kg
AUC(0-t) [2]: 256 ng·h/mL
half-life [2]: 1.07 h
Vd [2]: 4.9 L/kg
bioavailability [2]: 85.5%
IC50 [5]: 479 nM
IC50 [6]: 1320 nM
IC50 [4]: 16 nM
IC50 [7]: 752 nM

SMILES: C[C@H](Nc1ncnc(N)c1-c1nnn(C)n1)c1nc2cccc(-c3cnn(C)c3)c2c(=O)n1-c1ccccc1 [Ex. 76, (S)-2-(1-((6-amino-5-(2-methyl-2H-tetrazol-5-yl)pyrimidin-4-yl)amino)ethyl)-5-(1-methyl-1H-pyrazol-4-yl)-3-phenylquinazolin-4(3H)-one]
half-life at 5 μM [1]: 4.49 h
CLint scaled at 5 μM [1]: 6.46 mL/min/kg
CL/F [2]: 6.5 mL/min/kg
AUC(0-t) [2]: 2510 ng·h/mL
half-life [2]: 1.45 h
Vd [2]: 0.77 L/kg
bioavailability [2]: 105%
CLint scaled at 5 μM [3]: 8.61 mL/min/kg
half-life at 5 μM [3]: 4.81 h

The next lines start with the values.

half-life at 5 μM [1]: 1.36 h
CLint scaled at 5 μM [1]: 21.3 mL/min/kg
CL/F [2]: 5.33 mL/min/kg
AUC(0-t) [2]: 2920 ng·h/mL
half-life [2]: 1.76 h
Vd [2]: 0.78 L/kg
bioavailability [2]: 109%
CLint scaled at 5 μM [3]: 21.2 mL/min/kg
half-life at 5 μM [3]: 1.95 h
SMILES: Cc1nc(-c2c(N)ncnc2N[C@@H](C)c2nc3cccc(-c4cnn(C)c4)c3c(=O)n2-c2ccccc2)no1 [Ex. 77, (S)-2-(1-((6-amino-5-(5-methyl-1,2,4-oxadiazol-3-yl)pyrimidin-4-yl)amino)ethyl)-5-(1-methyl-1H-pyrazol-4-yl)-3-phenylquinazolin-4(3H)-one]

half-life at 5 μM [1]: 1 h
CLint scaled at 5 μM [1]: 28.9 mL/min/kg
CL/F [2]: 20.8 mL/min/kg
AUC(0-t) [2]: 783 ng·h/mL
half-life [2]: 1.27 h
Vd [2]: 2.18 L/kg
bioavailability [2]: 67.7%
CLint scaled at 5 μM [3]: 38.3 mL/min/kg
half-life at 5 μM [3]: 1.08 h
SMILES: CC[C@H](Nc1ncnc(N)c1-c1nnn(C)n1)c1nc2cccc(-c3cnn(C)c3)c2c(=O)n1C1CC1 [Ex. 78, (S)-2-(1-((6-amino-5-(2-methyl-2H-tetrazol-5-yl)pyrimidin-4-yl)amino)propyl)-3-cyclopropyl-5-(1-methyl-1H-pyrazol-4-yl)quinazolin-4(3H)-one]

half-life at 5 μM [1]: 0.821 h
CLint scaled at 5 μM [1]: 35.3 mL/min/kg
CL/F [2]: 32.2 mL/min/kg
AUC(0-t) [2]: 511 ng·h/mL
half-life [2]: 1.36 h
Vd [2]: 4.25 L/kg
bioavailability [2]: 78.7%
CLint scaled at 5 μM [3]: 17.3 mL/min/kg
half-life at 5 μM [3]: 2.4 h
SMILES: CC[C@H](Nc1ncnc(N)c1-c1noc(C)n1)c1nc2cccc(-c3cnn(C)c3)c2c(=O)n1C1CC1 [Ex. 79, (S)-2-(1-((6-amino-5-(5-methyl-1,2,4-oxadiazol-3-yl)pyrimidin-4-yl)amino)propyl)-3-cyclopropyl-5-(1-methyl-1H-pyrazol-4-yl)quinazolin-4(3H)-one]

half-life at 5 μM [1]: 1.07 h
CLint scaled at 5 μM [1]: 27 mL/min/kg
CLint scaled at 5 μM [3]: 37.7 mL/min/kg
half-life at 5 μM [3]: 1.1 h
SMILES: Cc1nc(-c2c(N)ncnc2N[C@@H](C)c2nc3cccc(-c4cnn(C)c4)c3c(=O)n2C2CC2)no1 [Ex. 80, (S)-2-(1-((6-amino-5-(5-methyl-1,2,4-oxadiazol-3-yl)pyrimidin-4-yl)amino)ethyl)-3-cyclopropyl-5-(1-methyl-1H-pyrazol-4-yl)quinazolin-4(3H)-one]

— US9518046B2 (Calitor Sciences, LLC, priority 2015, dated 2016)
